Measurements reported in patent US10351576B2, “Fused tricyclic pyrazole derivatives useful for farnesoid X receptors” (NOVARTIS AG, priority 2015, dated 2019).

The molecules below were run against T1, human Farnesoid X Receptor (FXR) ligand binding domain (GST-FXR LBD) (Homo sapiens, UniProt Q96RI1) (assay: Human GST-FXR LBD co-activator interaction assay (FXR HTRF assay)). Settings: ligand-dependent interaction of GST-FXR LBD with biotin-labeled SRC-1 peptide, response relative to GW4064, read-out: FXR coactivator interaction assay (HTRF).
T1 construct: purchased Invitrogen
T1 sequence (Q96RI1 193-472 isoform Q96RI1-2): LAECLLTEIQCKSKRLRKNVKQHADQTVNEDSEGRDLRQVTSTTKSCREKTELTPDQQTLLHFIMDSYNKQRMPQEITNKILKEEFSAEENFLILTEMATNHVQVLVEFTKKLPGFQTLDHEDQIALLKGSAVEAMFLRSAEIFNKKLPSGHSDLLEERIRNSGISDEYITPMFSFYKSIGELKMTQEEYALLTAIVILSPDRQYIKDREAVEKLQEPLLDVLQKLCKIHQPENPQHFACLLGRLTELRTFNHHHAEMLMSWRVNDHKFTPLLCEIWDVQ
Type: biochemical
From the text: Human GST-FXR LBD Co-Activator Interaction Assay
The FXR HTRF assay is a biochemical assay measuring the interaction between FXR and a coactivator protein (SRC1). The ligand-induced interaction with a coactivator protein is a critical step in transcriptional activation by FXR. Thus, this is an assay designed to measure FXR agonist activity of the test compounds.
Recombinant human Farnesoid X Receptor (FXR) ligand binding domain (amino acids 193-472) fused to glutathione S-transferase (GST) purified protein (GST-FXR LBD) was purchased (Invitrogen). The ligand-dependent interaction between GST-FXR LBD and a peptide derived from Steroid Receptor Coactivator-1 (SRC-1) was monitored by Fluorescence Resonance Energy Transfer (FRET). […] Test compounds (in DMSO solution) and detection reagents (anti-GST-Cryptate labeled antibody and Streptavidin-XL665 conjugate; CisBio) were added in assay buffer containing 50 mM KF. Plates are incubated at room temperature in the dark for 2.5 hrs before reading on an Envision (PerkinElmer) at 665 nm and 590 nm. The HTRF assay results were calculated from the 665 nm/590 nm ratio (ratio=(A665 nm/A590 nm)×10^4) and expressed in Delta F %=(Ratiosample−Rationegative)/Rationegative×100.
A negative control (without Streptavidin-XL665) was run with each assay and represented the background fluorescence. A reference FXR agonist, (E)-3-(2-chloro-4-((3-(2,6-dichlorophenyl)-5-isopropylisoxazol-4-yl)methoxy)styryl)benzoic acid (Compound GW4064), was included in each experiment as positive control. The efficacy of each test compound was compared to that of GW4064. At each concentration, the relative activity of the test compound was expressed as Response %=(Rsample−RDMSO)/(Rpositive−RDMSO), where Rsample is the HTRF response (expressed in Delta F %) for the test compound, Rpositive is the maximal response for GW4064 at saturating concentrations, and RDMSO is the response for DMSO control. The EC50 values were calculated using GraphPad Prism (GraphPad Software) using non-linear regression curve fit (log(agonist) vs. response—variable slope (four parameters)).
`Cn1nc(C(=O)N(CC(=O)NCC2CC2)Cc2cccc(F)c2)c2c1-c1cc(Cl)ccc1OC2` [Compound 1, 8-chloro-N-(2-((cyclopropylmethyl)amino)-2-oxoethyl)-N-(3-fluorobenzyl)-1-methyl-1,4-dihydrochromeno[4,3-c]pyrazole-3-carboxamide] was tested, and the EC50 was 2 nM.
`Cn1nc(C(=O)N(CC(=O)NCCC(F)(F)F)Cc2cccc(F)c2)c2c1-c1cc(Cl)ccc1OC2` [Compound 2, 2-(1-{8-chloro-1-methyl-1H,4H-chromeno[4,3-c]pyrazol-3-yl}-N-[(3-fluorophenyl)methyl]formamido)-N-(3,3,3-trifluoropropyl)acetamide] gave an EC50 of 3 nM.
`Cn1nc(C(=O)N(CC(=O)NCC2CC2)Cc2ccccc2F)c2c1-c1cc(Cl)ccc1OC2` [Compound 3, 2-(1-{8-chloro-1-methyl-1H,4H-chromeno[4,3-c]pyrazol-3-yl}-N-[(2-fluorophenyl)methyl]formamido)-N-(cyclopropylmethyl)acetamide] showed an EC50 of 1 nM.
For `Cn1nc(C(=O)N(CC(=O)NCCC(F)(F)F)Cc2ccccc2F)c2c1-c1cc(Cl)ccc1OC2` [Compound 4, 2-(1-{8-chloro-1-methyl-1H,4H-chromeno[4,3-c]pyrazol-3-yl}-N-[(2-fluorophenyl)methyl]formamido)-N-(3,3,3-trifluoropropyl)acetamide], the EC50 was 11 nM.
With `Cn1nc(C(=O)N(CC(=O)NCC2CC2)Cc2c(F)cccc2F)c2c1-c1cc(Cl)ccc1OC2` [Compound 5, 2-(1-{8-chloro-1-methyl-1H,4H-chromeno[4,3-c]pyrazol-3-yl}-N-[(2,6-difluorophenyl)methyl]formamido)-N-(cyclopropylmethyl)acetamide] the EC50 was 13 nM.
For `Cn1nc(C(=O)N(CC(=O)NCC2CC2)Cc2cccc(F)c2F)c2c1-c1cc(Cl)ccc1OC2` [Compound 6, 2-(1-{8-chloro-1-methyl-1H,4H-chromeno[4,3-c]pyrazol-3-yl}-N-[(2,3-difluorophenyl)methyl]formamido)-N-(cyclopropylmethyl) acetamide], the EC50 was 12 nM.
`Cn1nc(C(=O)N(CC(=O)NCC2CCOC2)Cc2ccccc2F)c2c1-c1cc(Cl)ccc1OC2` (stereo not shown) [Compound 7, 2-(1-{8-chloro-1-methyl-1H,4H-chromeno[4,3-c]pyrazol-3-yl}-N-[(2-fluorophenyl)methyl]formamido)-N-(oxolan-3-ylmethyl) acetamide] showed an EC50 of 18 nM.
Molecule `Cn1nc(C(=O)N(CC(=O)NC2CC2)Cc2ccccc2F)c2c1-c1cc(Cl)ccc1OC2` [Compound 8, 2-(1-{8-chloro-1-methyl-1H,4H-chromeno[4,3-c]pyrazol-3-yl}-N-[(2-fluorophenyl)methyl]formamido)-N-cyclopropylacetamide] has an EC50 of 31 nM.
Work on `Cn1nc(C(=O)N(CC(=O)NCCF)Cc2cccc(F)c2)c2c1-c1cc(Cl)ccc1OC2` [Compound 9, 2-(1-{8-chloro-1-methyl-1H,4H-chromeno[4,3-c]pyrazol-3-yl}-N-[(3-fluorophenyl)methyl]formamido)-N-(2-fluoroethyl)acetamide] yielded an EC50 of 3 nM.
With `Cn1nc(C(=O)N(CC(=O)NC2CC2(F)F)Cc2cccc(F)c2)c2c1-c1cc(Cl)ccc1OC2` (stereo not shown) [Compound 10, 2-(1-{8-chloro-1-methyl-1H,4H-chromeno[4,3-c]pyrazol-3-yl}-N-[(3-fluorophenyl)methyl]formamido)-N-(2,2-difluorocyclopropyl)acetamide] the EC50 was 21 nM.
Work on `Cn1nc(C(=O)N(CC(=O)NCCF)Cc2ccccc2F)c2c1-c1cc(Cl)ccc1OC2` [Compound 11, 2-(1-{8-chloro-1-methyl-1H,4H-chromeno[4,3-c]pyrazol-3-yl}-N-[(2-fluorophenyl)methyl]formamido)-N-(2-fluoroethyl)acetamide] yielded an EC50 of 13 nM.
In the case of `Cn1nc(C(=O)N(CC(=O)NC2CCC2)Cc2cccc(F)c2)c2c1-c1cc(Cl)ccc1OC2` [Compound 12, 2-(1-{8-chloro-1-methyl-1H,4H-chromeno[4,3-c]pyrazol-3-yl}-N-[(3-fluorophenyl)methyl]formamido)-N-cyclobutylacetamide], the EC50 is reported as 14 nM.
Molecule `CC(C)NC(=O)CN(Cc1cc(F)cc(F)c1)C(=O)c1nn(C)c2c1COc1ccc(Br)cc1-2` [Compound 13, 2-(1-{8-bromo-1-methyl-1H,4H-chromeno[4,3-c]pyrazol-3-yl}-N-[(3,5-difluorophenyl)methyl]formamido)-N-(propan-2-yl)acetamide] has an EC50 of 34 nM.
`Cn1nc(C(=O)N(CC(=O)NC(C)(C)C)Cc2cccc(F)c2)c2c1-c1cc(Cl)ccc1OC2` [Compound 14, N-tert-butyl-2-(1-{8-chloro-1-methyl-1H,4H-chromeno[4,3-c]pyrazol-3-yl}-N-[(3-fluorophenyl)methyl]formamido)acetamide] gave an EC50 of 58 nM.
In the case of `CC(C)NC(=O)CN(Cc1cccc(F)c1)C(=O)c1nn(C)c2c1COc1ccc(Cl)cc1-2` [Compound 15, 2-(1-{8-chloro-1-methyl-1H,4H-chromeno[4,3-c]pyrazol-3-yl}-N-[(3-fluorophenyl)methyl]formamido)-N-(propan-2-yl)acetamide], the EC50 is reported as 27 nM.
In the case of `CC(C)NC(=O)CN(Cc1cc(F)ccc1F)C(=O)c1nn(C)c2c1COc1ccc(Br)cc1-2` [Compound 16, 2-(1-{8-bromo-1-methyl-1H,4H-chromeno[4,3-c]pyrazol-3-yl}-N-[(2,5-difluorophenyl)methyl]formamido)-N-(propan-2-yl)acetamide], the EC50 is reported as 49 nM.
For `CCNC(=O)CN(Cc1ccccc1F)C(=O)c1nn(C)c2c1COc1ccc(Cl)cc1-2` [Compound 17, 2-(1-{8-chloro-1-methyl-1H,4H-chromeno[4,3-c]pyrazol-3-yl}-N-[(2-fluorophenyl)methyl]formamido)-N-ethylacetamide], the EC50 was 54 nM.
`Cn1nc(C(=O)N(CC(=O)NC2CCCC2)Cc2ccccc2F)c2c1-c1cc(Cl)ccc1OC2` [Compound 18, 2-(1-{8-chloro-1-methyl-1H,4H-chromeno[4,3-c]pyrazol-3-yl}-N-[(2-fluorophenyl)methyl]formamido)-N-cyclopentylacetamide] was tested, and the EC50 was 64 nM.
`Cn1nc(C(=O)N(CC(=O)NC2CCC2)Cc2ccccc2F)c2c1-c1cc(Cl)ccc1OC2` [Compound 19, 2-(1-{8-chloro-1-methyl-1H,4H-chromeno[4,3-c]pyrazol-3-yl}-N-[(2-fluorophenyl)methyl]formamido)-N-cyclobutylacetamide] gave an EC50 of 49 nM.
For `Cn1nc(C(=O)N(CC(=O)Nc2ccc(C(=O)N3CCOCC3)cc2)Cc2ccccc2F)c2c1-c1cc(Cl)ccc1OC2` [Compound 20, 2-(1-{8-chloro-1-methyl-1H,4H-chromeno[4,3-c]pyrazol-3-yl}-N-[(2-fluorophenyl)methyl]formamido)-N-[4-(morpholine-4-carbonyl)phenyl]acetamide], the EC50 was 246 nM.
In the case of `Cn1nc(C(=O)N(CC(=O)NC[C@@H]2CCCO2)Cc2ccccc2F)c2c1-c1cc(Cl)ccc1OC2` [Compound 21, 2-(1-{8-chloro-1-methyl-1H,4H-chromeno[4,3-c]pyrazol-3-yl}-N-[(2-fluorophenyl)methyl]formamido)-N-[(2S)-oxolan-2-ylmethyl]acetamide], the EC50 is reported as 160 nM.
`Cn1nc(C(=O)N(CC(=O)NC2CC2)Cc2cccc(F)c2F)c2c1-c1cc(Cl)ccc1OC2` [Compound 22, 2-(1-{8-chloro-1-methyl-1H,4H-chromeno[4,3-c]pyrazol-3-yl}-N-[(2,3-difluorophenyl)methyl]formamido)-N-cyclopropylacetamide] showed an EC50 of 60 nM.
`Cn1nc(C(=O)N(CC(=O)NC2CC2(F)F)Cc2ccccc2F)c2c1-c1cc(Cl)ccc1OC2` (stereo not shown) [Compound 23, 2-(1-{8-chloro-1-methyl-1H,4H-chromeno[4,3-c]pyrazol-3-yl}-N-[(2-fluorophenyl)methyl]formamido)-N-(2,2-difluorocyclopropyl)acetamide] showed an EC50 of 87 nM.
Work on `CC(C)NC(=O)CN(Cc1cc(F)cc(F)c1)C(=O)c1nn(C)c2c1COc1ccc(Cl)cc1-2` [Compound 24, 2-(1-{8-chloro-1-methyl-1H,4H-chromeno[4,3-c]pyrazol-3-yl}-N-[(3,5-difluorophenyl)methyl]formamido)-N-(propan-2-yl)acetamide] yielded an EC50 of 78 nM.
In the case of `CC(C)NC(=O)CN(Cc1ccccc1)C(=O)c1nn(C)c2c1COc1ccc(Br)cc1-2` [Compound 25, 2-(N-benzyl-1-{8-bromo-1-methyl-1H,4H-chromeno[4,3-c]pyrazol-3-yl}formamido)-N (propan-2-yl)acetamide], the EC50 is reported as 32 nM.
